The values that follow come from ChEMBL document CHEMBL5291721, “A preclinical secondary pharmacology resource illuminates target-adverse drug reaction associations of marketed drugs” (Nat Commun, 2023).

In assay [1] the target is T1, Gastrin/cholecystokinin type B receptor (Homo sapiens, UniProt P32239).
T1 sequence (P32239 whole entry): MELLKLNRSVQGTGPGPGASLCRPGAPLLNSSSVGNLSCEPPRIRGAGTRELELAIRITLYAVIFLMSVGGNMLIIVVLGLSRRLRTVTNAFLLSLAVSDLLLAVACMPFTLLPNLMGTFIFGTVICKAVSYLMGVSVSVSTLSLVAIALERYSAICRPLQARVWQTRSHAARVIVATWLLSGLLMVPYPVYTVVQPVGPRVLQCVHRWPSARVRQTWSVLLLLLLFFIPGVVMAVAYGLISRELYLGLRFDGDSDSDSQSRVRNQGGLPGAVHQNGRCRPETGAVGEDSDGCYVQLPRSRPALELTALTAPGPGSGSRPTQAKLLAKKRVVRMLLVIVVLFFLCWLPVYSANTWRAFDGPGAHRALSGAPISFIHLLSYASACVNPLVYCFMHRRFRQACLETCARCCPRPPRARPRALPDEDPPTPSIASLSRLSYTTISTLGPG

Assay [2] concerns the target D(1A) dopamine receptor (Homo sapiens, UniProt P21728). The assay is classed as functional, cell-based.
The target in assay [3] is Beta-1 adrenergic receptor (Homo sapiens, UniProt P08588). The assay is classed as functional.
Beta-1 adrenergic receptor, sequence (P08588 whole entry): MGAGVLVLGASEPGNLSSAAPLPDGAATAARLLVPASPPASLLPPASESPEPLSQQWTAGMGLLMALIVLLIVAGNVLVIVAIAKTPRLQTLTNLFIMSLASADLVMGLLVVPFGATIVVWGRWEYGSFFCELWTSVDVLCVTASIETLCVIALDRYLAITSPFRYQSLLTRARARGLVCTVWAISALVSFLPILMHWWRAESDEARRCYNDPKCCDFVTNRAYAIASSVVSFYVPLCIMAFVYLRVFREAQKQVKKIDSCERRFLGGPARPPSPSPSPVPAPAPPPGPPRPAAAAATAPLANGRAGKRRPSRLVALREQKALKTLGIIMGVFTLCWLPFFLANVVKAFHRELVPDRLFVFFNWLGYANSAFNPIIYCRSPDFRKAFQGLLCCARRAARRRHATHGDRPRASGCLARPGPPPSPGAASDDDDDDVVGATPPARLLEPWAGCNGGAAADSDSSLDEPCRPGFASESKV
For assay [4], the target named is Cannabinoid receptor 1 (Homo sapiens, UniProt P21554). Format: functional, cell-based.
Cannabinoid receptor 1, sequence (P21554 whole entry): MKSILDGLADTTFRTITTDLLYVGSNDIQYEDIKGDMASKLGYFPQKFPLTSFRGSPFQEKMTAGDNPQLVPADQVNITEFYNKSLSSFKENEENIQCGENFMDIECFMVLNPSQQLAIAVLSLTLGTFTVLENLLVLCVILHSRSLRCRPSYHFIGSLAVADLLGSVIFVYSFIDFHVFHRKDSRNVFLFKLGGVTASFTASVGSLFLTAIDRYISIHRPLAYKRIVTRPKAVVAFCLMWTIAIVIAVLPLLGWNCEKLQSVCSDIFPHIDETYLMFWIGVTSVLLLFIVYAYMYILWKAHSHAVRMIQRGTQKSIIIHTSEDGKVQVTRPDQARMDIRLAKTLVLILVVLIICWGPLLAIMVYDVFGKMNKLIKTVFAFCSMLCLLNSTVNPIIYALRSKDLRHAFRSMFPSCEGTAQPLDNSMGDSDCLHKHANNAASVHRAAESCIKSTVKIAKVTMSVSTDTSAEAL
For assay [5], the target named is T2, Alpha-2A adrenergic receptor (Homo sapiens, UniProt P08913).
T2 sequence (P08913 whole entry): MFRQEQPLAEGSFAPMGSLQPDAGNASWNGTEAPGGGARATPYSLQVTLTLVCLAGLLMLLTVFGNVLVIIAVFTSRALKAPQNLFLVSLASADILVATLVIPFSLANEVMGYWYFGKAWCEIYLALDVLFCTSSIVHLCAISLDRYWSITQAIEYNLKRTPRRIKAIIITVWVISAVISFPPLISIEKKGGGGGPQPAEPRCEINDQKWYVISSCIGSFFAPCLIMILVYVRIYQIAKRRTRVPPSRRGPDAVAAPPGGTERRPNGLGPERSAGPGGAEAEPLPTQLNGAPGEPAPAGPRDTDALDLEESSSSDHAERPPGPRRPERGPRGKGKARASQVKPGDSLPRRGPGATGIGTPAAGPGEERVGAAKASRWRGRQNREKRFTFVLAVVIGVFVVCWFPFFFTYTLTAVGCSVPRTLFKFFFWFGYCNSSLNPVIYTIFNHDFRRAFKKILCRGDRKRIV
The assay is classed as functional, cell-based.

The target of assay [6] is T3, Progesterone receptor (Homo sapiens, UniProt P06401).
T3 sequence (P06401 whole entry): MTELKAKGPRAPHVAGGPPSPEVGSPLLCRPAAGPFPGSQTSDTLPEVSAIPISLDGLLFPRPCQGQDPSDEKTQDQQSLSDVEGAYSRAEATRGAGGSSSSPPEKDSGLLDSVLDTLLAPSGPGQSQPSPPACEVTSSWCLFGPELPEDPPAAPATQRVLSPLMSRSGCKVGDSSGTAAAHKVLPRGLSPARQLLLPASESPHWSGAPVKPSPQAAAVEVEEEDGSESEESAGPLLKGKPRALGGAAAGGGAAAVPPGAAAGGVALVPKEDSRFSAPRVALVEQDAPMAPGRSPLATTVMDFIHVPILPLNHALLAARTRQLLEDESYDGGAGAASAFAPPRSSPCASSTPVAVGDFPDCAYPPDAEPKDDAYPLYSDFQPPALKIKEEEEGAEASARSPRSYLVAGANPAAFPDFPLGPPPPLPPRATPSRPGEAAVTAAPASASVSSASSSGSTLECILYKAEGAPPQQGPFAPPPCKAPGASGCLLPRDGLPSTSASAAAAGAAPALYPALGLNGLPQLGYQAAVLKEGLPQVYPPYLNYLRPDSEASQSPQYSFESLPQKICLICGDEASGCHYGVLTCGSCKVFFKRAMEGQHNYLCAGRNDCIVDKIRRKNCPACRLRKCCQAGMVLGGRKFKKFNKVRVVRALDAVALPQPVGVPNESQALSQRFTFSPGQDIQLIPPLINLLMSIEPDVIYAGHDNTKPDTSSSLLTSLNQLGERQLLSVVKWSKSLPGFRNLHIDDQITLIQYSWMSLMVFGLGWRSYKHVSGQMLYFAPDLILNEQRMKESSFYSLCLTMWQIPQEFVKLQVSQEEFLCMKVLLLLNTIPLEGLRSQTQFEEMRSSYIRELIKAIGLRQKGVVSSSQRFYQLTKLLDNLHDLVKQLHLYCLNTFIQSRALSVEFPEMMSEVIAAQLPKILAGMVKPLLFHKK
The assay is classed as functional.

In assay [7] the target is Gamma-aminobutyric acid receptor subunit alpha-1 (Rattus norvegicus, UniProt P62813). Format: functional.
Gamma-aminobutyric acid receptor subunit alpha-1, sequence (P62813 whole entry): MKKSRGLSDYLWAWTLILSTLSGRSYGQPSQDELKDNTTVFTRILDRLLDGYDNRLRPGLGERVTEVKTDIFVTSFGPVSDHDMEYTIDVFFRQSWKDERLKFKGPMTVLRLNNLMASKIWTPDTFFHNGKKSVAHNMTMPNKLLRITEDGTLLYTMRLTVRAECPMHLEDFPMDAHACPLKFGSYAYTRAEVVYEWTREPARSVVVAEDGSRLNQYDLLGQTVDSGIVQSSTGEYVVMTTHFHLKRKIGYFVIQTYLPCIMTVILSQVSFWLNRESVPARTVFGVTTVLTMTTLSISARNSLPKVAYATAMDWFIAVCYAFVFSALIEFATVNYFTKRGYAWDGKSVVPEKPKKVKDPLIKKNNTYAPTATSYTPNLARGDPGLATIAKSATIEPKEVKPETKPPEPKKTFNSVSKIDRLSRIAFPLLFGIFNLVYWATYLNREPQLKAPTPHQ
In assay [8] the target is 5-hydroxytryptamine receptor 2B (Homo sapiens, UniProt P41595). The assay is classed as functional, cell-based.
5-hydroxytryptamine receptor 2B, sequence (P41595 whole entry): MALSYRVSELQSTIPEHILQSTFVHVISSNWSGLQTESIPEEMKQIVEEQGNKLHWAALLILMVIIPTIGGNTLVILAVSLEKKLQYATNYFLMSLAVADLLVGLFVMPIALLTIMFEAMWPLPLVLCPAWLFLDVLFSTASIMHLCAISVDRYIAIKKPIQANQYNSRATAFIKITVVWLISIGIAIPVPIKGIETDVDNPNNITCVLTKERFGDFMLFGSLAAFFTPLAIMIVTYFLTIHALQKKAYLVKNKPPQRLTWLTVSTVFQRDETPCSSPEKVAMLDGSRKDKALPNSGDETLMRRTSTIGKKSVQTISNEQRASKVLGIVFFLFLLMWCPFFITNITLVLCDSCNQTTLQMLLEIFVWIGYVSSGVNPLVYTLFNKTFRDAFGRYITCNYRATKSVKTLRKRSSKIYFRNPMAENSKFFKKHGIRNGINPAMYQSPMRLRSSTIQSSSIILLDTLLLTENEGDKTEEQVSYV
The target in assay [9] is Vasopressin V1a receptor (Homo sapiens, UniProt P37288).
Vasopressin V1a receptor, sequence (P37288 whole entry): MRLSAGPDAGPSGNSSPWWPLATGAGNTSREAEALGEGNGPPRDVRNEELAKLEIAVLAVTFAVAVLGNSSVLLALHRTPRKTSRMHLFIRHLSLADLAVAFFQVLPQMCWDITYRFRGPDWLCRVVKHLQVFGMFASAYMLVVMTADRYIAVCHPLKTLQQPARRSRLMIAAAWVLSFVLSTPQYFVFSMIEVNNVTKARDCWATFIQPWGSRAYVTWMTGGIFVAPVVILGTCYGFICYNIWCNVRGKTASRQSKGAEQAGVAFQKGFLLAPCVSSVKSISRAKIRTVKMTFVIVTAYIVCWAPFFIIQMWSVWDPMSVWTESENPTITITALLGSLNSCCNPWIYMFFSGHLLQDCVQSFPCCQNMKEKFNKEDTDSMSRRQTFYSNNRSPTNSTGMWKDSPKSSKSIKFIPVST
Note: assay procedure not described here.

D(1A) dopamine receptor, sequence (P21728 whole entry): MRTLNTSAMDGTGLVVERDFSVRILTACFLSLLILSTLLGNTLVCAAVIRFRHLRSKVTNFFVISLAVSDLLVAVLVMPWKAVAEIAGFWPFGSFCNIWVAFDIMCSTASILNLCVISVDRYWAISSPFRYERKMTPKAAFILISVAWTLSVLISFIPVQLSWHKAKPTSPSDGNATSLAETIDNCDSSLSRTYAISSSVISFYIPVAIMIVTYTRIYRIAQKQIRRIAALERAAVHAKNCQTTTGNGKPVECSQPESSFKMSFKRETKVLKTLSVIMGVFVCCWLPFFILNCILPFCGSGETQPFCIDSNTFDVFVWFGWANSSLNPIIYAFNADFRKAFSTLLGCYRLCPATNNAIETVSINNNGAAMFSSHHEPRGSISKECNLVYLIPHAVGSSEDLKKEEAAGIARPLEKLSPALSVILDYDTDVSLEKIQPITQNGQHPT

Broadly, the AC50 is the midpoint of the concentration-response curve, whichever way the signal moves. Low values mean greater potency, high ones weaker potency. Consider `Clc1ccc2c(N3CCN(CCCN4CCN(c5ccnc6cc(Cl)ccc56)CC4)CC3)ccnc2c1` [PIPERAQUINE], for which the AC50 in assay [1], in assay [2], in assay [3], in assay [4], in [5] and in [6] was > 30 µM each time. The AC50 in assay [7], in [8] and in assay [9] was > 30 µM throughout.

On to `CCOC(=O)C1=C[C@]2(CC)CCCN3CCc4c(n1c1ccccc41)[C@@H]32` [VINPOCETINE], for which the AC50 in [1] was > 30 µM; in assay [2] it was > 30 µM; in [3], > 30 µM; in assay [4] it was > 30 µM; in assay [5], 19 µM; in assay [6] it was > 30 µM. Moreover, the AC50 in assay [7] is > 30 µM; in assay [8], 13 µM; in assay [9] it was > 30 µM.

For `CCCN[C@H]1CCc2nc(N)sc2C1` [PRAMIPEXOLE], the AC50 in assay [1] is > 30 µM; in assay [3] it was > 30 µM; in assay [4] it was > 30 µM; in [6], > 30 µM; in [7], > 10 µM; in [8], > 10 µM. In addition, the AC50 in assay [9] was > 30 µM.

In the case of `Oc1ccc2c(c1)CC[C@H](c1ccccc1)[C@@H]2c1ccc(OCCN2CCCC2)cc1` [LASOFOXIFENE], the AC50 in [1] is > 3 µM; in [2], > 30 µM; in assay [3], 10 µM; in [4], > 30 µM; in assay [6] it was > 10 µM; in assay [7] it was > 30 µM. Also, the AC50 in assay [9] was > 30 µM.

`COc1cc(N)c(Cl)cc1C(=O)NC1CCN(Cc2ccccc2)CC1` [CLEBOPRIDE]: the AC50 is > 30 µM in assay [1]; > 30 µM in assay [4]; 14 µM in assay [5]; > 30 µM in assay [6]; 0.13 µM in assay [7]; > 30 µM in assay [8]. Also, in assay [9], the AC50 is > 30 µM.

Regarding `CC1(C)S[C@@H]2[C@H](NC(=O)[C@H](N)c3ccccc3)C(=O)N2[C@H]1C(=O)OCOC(=O)[C@@H]1N2C(=O)C[C@H]2S(=O)(=O)C1(C)C` [SULTAMICILLIN], the AC50 in [1], in assay [2], in assay [4], in assay [5], in assay [6] and in assay [7] was > 30 µM throughout. The AC50 in assay [8] and in [9] was > 30 µM throughout.

Turning to `CC(C)NCC(O)c1ccc(O)c(O)c1` (stereo not drawn) [ISOPROTERENOL], the AC50 in assay [1] is > 30 µM; in assay [2], > 30 µM; in assay [4], > 30 µM; in assay [6], > 30 µM; in assay [7] it was > 10 µM; in assay [8], > 10 µM. The AC50 in assay [9] was > 10 µM.

Regarding `CCC(C)C1(CC)C(=O)NC(=O)NC1=O` (stereo not drawn) [BUTABARBITAL], the AC50 in [1], in [2], in [3], in assay [4], in [5] and in [6] was > 30 µM throughout. The AC50 in assay [8] and in [9] was > 30 µM throughout.

For `C/N=C(\NC)NCc1ccccc1` [BETHANIDINE], the AC50 in assay [1], in assay [2], in assay [4], in [5], in [6] and in assay [7] was > 30 µM throughout. Besides, the AC50 in assay [8] and in [9] was > 30 µM each time.

On to `CN(C)CCCNc1c2ccccc2nc2cccc([N+](=O)[O-])c12` [NITRACRINE], for which the AC50 in [1] was > 30 µM; in assay [3] it was > 30 µM; in [4], > 30 µM; in [5], > 30 µM; in [6] it was > 30 µM; in assay [7], 18 µM. Also, the AC50 in assay [8] and in assay [9] was > 30 µM each time.
